The test addresses nAChRs comprised of α4 and β2 subunits (Rattus norvegicus, UniProt P09483+P12390). In words: In vitro inhibition of 3H-cytisine binding. The text has this:
In Vitro Inhibition of ^3H-Cytisine Binding
Molecular biology studies have elucidated that there are at least ten nicotinic receptor genes in the brain. The predominant subtype with high affinity for nicotine is comprised of α4 and β2 subunits. nAChRs of the latter type can selectively be labelled by the nicotine agonist ^3H-cytisine.
A standard assay for determining in vitro inhibition of ^3H-cytisine binding is described in e.g. WO 02/096911. When subjected to this test the compounds of the invention show inhibitory activity on the micromolar or sub-micromolar range.

Read-outs that look alike come from different tables or passages of the source.

Sequence of nAChRs comprised of α4 and β2 subunits (P09483 31-630): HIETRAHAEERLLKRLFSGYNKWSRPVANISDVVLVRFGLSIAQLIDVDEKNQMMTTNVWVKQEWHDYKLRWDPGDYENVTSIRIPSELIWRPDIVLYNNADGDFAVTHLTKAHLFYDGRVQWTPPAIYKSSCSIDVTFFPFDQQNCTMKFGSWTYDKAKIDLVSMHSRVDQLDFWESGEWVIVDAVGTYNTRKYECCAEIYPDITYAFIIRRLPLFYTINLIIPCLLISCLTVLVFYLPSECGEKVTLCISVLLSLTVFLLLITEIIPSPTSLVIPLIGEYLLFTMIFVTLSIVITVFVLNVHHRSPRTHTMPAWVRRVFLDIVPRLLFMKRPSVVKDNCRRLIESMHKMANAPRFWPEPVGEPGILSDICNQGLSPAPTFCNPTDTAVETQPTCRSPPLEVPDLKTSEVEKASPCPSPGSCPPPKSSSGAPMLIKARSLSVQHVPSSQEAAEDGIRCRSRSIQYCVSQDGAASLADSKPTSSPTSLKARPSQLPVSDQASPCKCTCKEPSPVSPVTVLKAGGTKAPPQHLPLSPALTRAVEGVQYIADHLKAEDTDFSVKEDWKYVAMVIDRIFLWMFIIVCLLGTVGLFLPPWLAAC
Sequence of nAChRs comprised of α4 and β2 subunits (P12390 25-500): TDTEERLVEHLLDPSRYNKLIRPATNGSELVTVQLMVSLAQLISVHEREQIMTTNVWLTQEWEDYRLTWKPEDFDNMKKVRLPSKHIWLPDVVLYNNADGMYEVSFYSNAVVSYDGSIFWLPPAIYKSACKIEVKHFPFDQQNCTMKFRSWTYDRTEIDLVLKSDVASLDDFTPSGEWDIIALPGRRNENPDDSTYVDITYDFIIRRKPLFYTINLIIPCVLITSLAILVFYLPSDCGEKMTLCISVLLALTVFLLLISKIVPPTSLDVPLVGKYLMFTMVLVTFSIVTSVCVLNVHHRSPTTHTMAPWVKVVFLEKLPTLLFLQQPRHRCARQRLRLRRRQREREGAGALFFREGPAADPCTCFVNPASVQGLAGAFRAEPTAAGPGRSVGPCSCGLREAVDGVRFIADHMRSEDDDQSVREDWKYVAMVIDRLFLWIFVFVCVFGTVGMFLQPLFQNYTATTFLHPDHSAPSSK

Regarding `CN1C2CCCC1CN(c1cncc(Cl)c1)C2` [Compound A1, 3-(5-Chloro-pyridin-3-yl)-9-methyl-3,9-diaza-bicyclo[3.3.1]nonane], the IC50 (commonly the concentration that inhibits the measured activity by half) is 6.3 nM.
In the case of `c1cncc(N2CC3CCCC(C2)N3)c1` [Compound B1, 3-Pyridin-3-yl-3,9-diaza-bicyclo[3.3.1]nonane], the IC50 worked out at 2.5 nM.
Regarding `CN1C2CCCC1CN(c1cccnn1)C2` [Compound C1, 9-Methyl-3-pyridazin-3-yl-3,9-diaza-bicyclo[3.3.1]nonane], the IC50 (3H-cytisine as radioligand, standard assay as described in WO 02/096911, read-out: In vitro Inhibition of 3H-cytisine Binding IC50) came out at 460 nM.

Source of the values: US7687523B2, “3-heteroaryl-3,9-diazabicyclo[3.3.1]nonane derivatives as nicotinic acetylcholine receptor agonists” (Neurosearch A/S, priority 2006, dated 2010).
